According to ChEMBL document CHEMBL3885881, “DrugMatrix”:

Species: Rattus norvegicus
Test: DrugMatrix - Regimen: Daily Repeat
Assay type: toxicity, organism-based, Sprague-Dawley
Parameters: regimen Daily Repeat, gender Male, age 6-8 weeks
Details: in vivo, po, route oral GAVAGE, vehicle .5 % CMC; for ABSOLUTE BASOPHIL / ABSOLUTE EOSINOPHIL / ABSOLUTE LYMPHOCYTE / ABSOLUTE MONOCYTE / ABSOLUTE SEGMENTED NEUTROPHIL / BASOPHIL / EOSINOPHIL / ERYTHROCYTE COUNT / HEMATOCRIT / HEMOGLOBIN / LEUKOCYTE COUNT / LYMPHOCYTE / MEAN CORPUSCULAR HEMOGLOBIN / MEAN CORPUSCULAR HEMOGLOBIN CONCENTRATION / MEAN CORPUSCULAR VOLUME / MONOCYTE / NEUTROPHIL / NUCLEATED RED BLOOD CELLS / PLATELET COUNT: tissue Blood; for ALANINE AMINOTRANSFERASE / ALBUMIN / ALKALINE PHOSPHATASE / ASPARTATE AMINOTRANSFERASE / BLOOD UREA NITROGEN / CARBON DIOXIDE / CHLORIDE / CHOLESTEROL / CREATINE PHOSPHOKINASE / CREATININE / GLUCOSE / LACTATE DEHYDROGENASE / LIPASE / PHOSPHORUS / POTASSIUM / SODIUM / TOTAL BILIRUBIN / TOTAL PROTEIN / URIC ACID: tissue Plasma
[1] = 0 mg/kg, 72 h, dose level Control, time 3 day
[2] = 0 mg/kg, 120 h, dose level Control, time 5 day
[3] = 20 mg/kg, 72 h, dose level Low, time 3 day
[4] = 20 mg/kg, 120 h, dose level Low, time 5 day

Structure (SMILES): Clc1ccc2c(c1)C(N1CCNCC1)=Nc1ccccc1O2 [AMOXAPINE]
- ABSOLUTE BASOPHIL [1]: 0 CELLS/uL
- ABSOLUTE EOSINOPHIL [1]: 32.5 CELLS/uL
- ABSOLUTE LYMPHOCYTE [1]: 13494.17 CELLS/uL
- ABSOLUTE MONOCYTE [1]: 474 CELLS/uL
- ABSOLUTE SEGMENTED NEUTROPHIL [1]: 1932.67 CELLS/uL
- BASOPHIL [1]: 0%
- EOSINOPHIL [1]: 0.17%
- ERYTHROCYTE COUNT [1]: 5.45 x10E6/uL
- HEMATOCRIT [1]: 34.32%
- HEMOGLOBIN [1]: 13.82 G/DL
- LEUKOCYTE COUNT [1]: 15.93 x10E3/uL
- LYMPHOCYTE [1]: 84.83%
- MEAN CORPUSCULAR HEMOGLOBIN [1]: 25.38 pg
- MEAN CORPUSCULAR HEMOGLOBIN CONCENTRATION [1]: 40.27 G/DL
- MEAN CORPUSCULAR VOLUME [1]: 63.05 fL
- MONOCYTE [1]: 3%
- NEUTROPHIL [1]: 12%
- NUCLEATED RED BLOOD CELLS [1]: 0.67 /100WBC
- PLATELET COUNT [1]: 1188.5 x10E3/uL
- ALANINE AMINOTRANSFERASE [1]: 54.83 u/L
- ALBUMIN [1]: 4.22 G/DL
- ALKALINE PHOSPHATASE [1]: 427.67 u/L
- ASPARTATE AMINOTRANSFERASE [1]: 86.5 u/L
- BLOOD UREA NITROGEN [1]: 15.33 mg/dL
- CARBON DIOXIDE [1]: 24.83 mmol/L
- CHLORIDE [1]: 102.33 MEQ/L
- CHOLESTEROL [1]: 71.67 mg/dL
- CREATINE PHOSPHOKINASE [1]: 442.5 u/L
- CREATININE [1]: 0.19 mg/dL
- GLUCOSE [1]: 160.67 mg/dL
- LACTATE DEHYDROGENASE [1]: 236.5 u/L
- LIPASE [1]: 9 u/L
- PHOSPHORUS [1]: 11.97 mg/dL
- POTASSIUM [1]: 6.2 MEQ/L
- SODIUM [1]: 142.85 MEQ/L
- TOTAL BILIRUBIN [1]: 0.2 mg/dL
- TOTAL PROTEIN [1]: 5.8 G/DL
- URIC ACID [1]: 1.3 mg/dL
- ABSOLUTE BASOPHIL [2]: 0 CELLS/uL
- ABSOLUTE EOSINOPHIL [2]: 114.5 CELLS/uL
- ABSOLUTE LYMPHOCYTE [2]: 14614 CELLS/uL
- ABSOLUTE MONOCYTE [2]: 173 CELLS/uL
- ABSOLUTE SEGMENTED NEUTROPHIL [2]: 1048.5 CELLS/uL
- BASOPHIL [2]: 0%
- EOSINOPHIL [2]: 0.67%
- ERYTHROCYTE COUNT [2]: 5.66 x10E6/uL
- HEMATOCRIT [2]: 35.52%
- HEMOGLOBIN [2]: 14.27 G/DL
- LEUKOCYTE COUNT [2]: 15.95 x10E3/uL
- LYMPHOCYTE [2]: 91.33%
- MEAN CORPUSCULAR HEMOGLOBIN [2]: 25.23 pg
- MEAN CORPUSCULAR HEMOGLOBIN CONCENTRATION [2]: 40.2 G/DL
- MEAN CORPUSCULAR VOLUME [2]: 62.7 fL
- MONOCYTE [2]: 1.17%
- NEUTROPHIL [2]: 6.83%
- NUCLEATED RED BLOOD CELLS [2]: 0.33 /100WBC
- PLATELET COUNT [2]: 1229 x10E3/uL
- ALANINE AMINOTRANSFERASE [2]: 58.67 u/L
- ALBUMIN [2]: 4.32 G/DL
- ALKALINE PHOSPHATASE [2]: 382.5 u/L
- ASPARTATE AMINOTRANSFERASE [2]: 81.67 u/L
- BLOOD UREA NITROGEN [2]: 17.67 mg/dL
- CARBON DIOXIDE [2]: 27.17 mmol/L
- CHLORIDE [2]: 102.33 MEQ/L
- CHOLESTEROL [2]: 63.67 mg/dL
- CREATINE PHOSPHOKINASE [2]: 227.67 u/L
- CREATININE [2]: 0.23 mg/dL
- GLUCOSE [2]: 155.33 mg/dL
- LACTATE DEHYDROGENASE [2]: 146.5 u/L
- LIPASE [2]: 10.67 u/L
- PHOSPHORUS [2]: 11.93 mg/dL
- POTASSIUM [2]: 6.85 MEQ/L
- SODIUM [2]: 143.95 MEQ/L
- TOTAL BILIRUBIN [2]: 0.18 mg/dL
- TOTAL PROTEIN [2]: 6.02 G/DL
- URIC ACID [2]: 1.63 mg/dL
- ABSOLUTE BASOPHIL [3]: 0 CELLS/uL
- ABSOLUTE EOSINOPHIL [3]: 0 CELLS/uL
- ABSOLUTE LYMPHOCYTE [3]: 12123 CELLS/uL
- ABSOLUTE MONOCYTE [3]: 372 CELLS/uL
- ABSOLUTE SEGMENTED NEUTROPHIL [3]: 1505 CELLS/uL
- BASOPHIL [3]: 0%
- EOSINOPHIL [3]: 0%
- ERYTHROCYTE COUNT [3]: 5.61 x10E6/uL
- HEMATOCRIT [3]: 34.6%
- HEMOGLOBIN [3]: 13.67 G/DL
- LEUKOCYTE COUNT [3]: 14 x10E3/uL
- LYMPHOCYTE [3]: 86.67%
- MEAN CORPUSCULAR HEMOGLOBIN [3]: 24.47 pg
- MEAN CORPUSCULAR HEMOGLOBIN CONCENTRATION [3]: 39.53 G/DL
- MEAN CORPUSCULAR VOLUME [3]: 61.9 fL
- MONOCYTE [3]: 2.67%
- NEUTROPHIL [3]: 10.67%
- NUCLEATED RED BLOOD CELLS [3]: 0.33 /100WBC
- PLATELET COUNT [3]: 1267.33 x10E3/uL
- ALANINE AMINOTRANSFERASE [3]: 52 u/L
- ALBUMIN [3]: 4.13 G/DL
- ALKALINE PHOSPHATASE [3]: 425.33 u/L
- ASPARTATE AMINOTRANSFERASE [3]: 87 u/L
- BLOOD UREA NITROGEN [3]: 15.67 mg/dL
- CARBON DIOXIDE [3]: 26.67 mmol/L
- CHLORIDE [3]: 101.33 MEQ/L
- CHOLESTEROL [3]: 69 mg/dL
- CREATINE PHOSPHOKINASE [3]: 308 u/L
- CREATININE [3]: 0.17 mg/dL
- GLUCOSE [3]: 148.33 mg/dL
- LACTATE DEHYDROGENASE [3]: 190.67 u/L
- LIPASE [3]: 9 u/L
- PHOSPHORUS [3]: 12.47 mg/dL
- POTASSIUM [3]: 6.99 MEQ/L
- SODIUM [3]: 143.93 MEQ/L
- TOTAL BILIRUBIN [3]: 0.17 mg/dL
- TOTAL PROTEIN [3]: 5.8 G/DL
- URIC ACID [3]: 1.77 mg/dL
- ABSOLUTE BASOPHIL [4]: 0 CELLS/uL
- ABSOLUTE EOSINOPHIL [4]: 0 CELLS/uL
- ABSOLUTE LYMPHOCYTE [4]: 16690.33 CELLS/uL
- ABSOLUTE MONOCYTE [4]: 278.67 CELLS/uL
- ABSOLUTE SEGMENTED NEUTROPHIL [4]: 997.67 CELLS/uL
- BASOPHIL [4]: 0%
- EOSINOPHIL [4]: 0%
- ERYTHROCYTE COUNT [4]: 5.66 x10E6/uL
- HEMATOCRIT [4]: 34.53%
- HEMOGLOBIN [4]: 14.03 G/DL
- LEUKOCYTE COUNT [4]: 17.97 x10E3/uL
- LYMPHOCYTE [4]: 93%
- MEAN CORPUSCULAR HEMOGLOBIN [4]: 24.87 pg
- MEAN CORPUSCULAR HEMOGLOBIN CONCENTRATION [4]: 40.63 G/DL
- MEAN CORPUSCULAR VOLUME [4]: 61.17 fL
- MONOCYTE [4]: 1.33%
- NEUTROPHIL [4]: 5.67%
- NUCLEATED RED BLOOD CELLS [4]: 0.67 /100WBC
- PLATELET COUNT [4]: 1272 x10E3/uL
- ALANINE AMINOTRANSFERASE [4]: 53.33 u/L
- ALBUMIN [4]: 4.1 G/DL
- ALKALINE PHOSPHATASE [4]: 315 u/L
- ASPARTATE AMINOTRANSFERASE [4]: 72.33 u/L
- BLOOD UREA NITROGEN [4]: 18.33 mg/dL
- CARBON DIOXIDE [4]: 27.33 mmol/L
- CHLORIDE [4]: 100.33 MEQ/L
- CHOLESTEROL [4]: 84 mg/dL
- CREATINE PHOSPHOKINASE [4]: 186.33 u/L
- CREATININE [4]: 0.19 mg/dL
- GLUCOSE [4]: 146 mg/dL
- LACTATE DEHYDROGENASE [4]: 126.33 u/L
- LIPASE [4]: 10 u/L
- PHOSPHORUS [4]: 12.8 mg/dL
- POTASSIUM [4]: 6.96 MEQ/L
- SODIUM [4]: 145.2 MEQ/L
- TOTAL BILIRUBIN [4]: 0.2 mg/dL
- TOTAL PROTEIN [4]: 5.8 G/DL
- URIC ACID [4]: 1.43 mg/dL
